Laboratory results from patent US6642392B1 (priority 1997, dated 2003).
Like-named read-outs stand apart in the source and are kept apart here.

Key:
Assay type in all cases: in vivo
Botrytis cinerea = experiment: Test E: gray mold, preventive spray on cucumber seedlings; conditions: for Test E disease control rating: gray mold on cucumber; for Test E disease control rating (100 = 100% disease control, 0 = no disease control): cucumber seedlings sprayed to run-off, inoculated the following day, rating relative to controls, unmarked compounds (standard test rate)
Procedure: The resulting test suspensions were then used in the following tests. Spraying these 200 ppm test suspensions to the point of run-off on the test plants is the equivalent of a rate of 500 g/ha.
The test suspension was sprayed to the point of run-off on cucumber seedlings. The following day the seedlings were inoculated with a spore suspension of Botrytis cinerea (the causal agent of gray mold on many crops) and incubated in a saturated atmosphere at 20° C. for 48 h, and moved to a growth chamber at 20° C. for 5 days, after which disease ratings were made.
(§1) Results for Tests A-E are given in Table A. In the table, a rating of 100 indicates 100% disease control and a rating of 0 indicates no disease control (relative to the controls). A dash (-) indicates no test results. ND indicates disease control not determined due to phytotoxicity.

Phytophthora infestans = conditions: for Test D disease control rating: tomato late blight; for Test D disease control rating (100 = 100% disease control, 0 = no disease control): tomato seedlings sprayed to run-off, inoculated the following day, rating relative to controls, unmarked compounds (standard test rate)
[1] = test system: Eiysiphe graminis f. sp. tritici; experiment: Test A: wheat powdery mildew, preventive spray on wheat seedlings; conditions: for Test A disease control rating: wheat powdery mildew; for Test A disease control rating (100 = 100% disease control, 0 = no disease control): wheat seedlings sprayed to run-off, inoculated the following day, rating relative to controls, unmarked compounds (standard test rate)
Procedure: (§2) The resulting test suspensions were then used in the following tests. […]
The test suspension was sprayed to the point of run-off on wheat seedlings. The following day the seedlings were inoculated with a spore dust of Eiysiphe graminis f. sp. tritici, (the causal agent of wheat powdery mildew) and incubated in a growth chamber at 20° C. for 7 days, after which disease ratings were made.
as §1

Puccinia recondita = experiment: Test B: wheat leaf rust, preventive spray on wheat seedlings; conditions: for Test B disease control rating: wheat leaf rust; for Test B disease control rating (100 = 100% disease control, 0 = no disease control): wheat seedlings sprayed to run-off, inoculated the following day, rating relative to controls, unmarked compounds (standard test rate)
Procedure: as §2
The test suspension was sprayed to the point of run-off on wheat seedlings. The following day the seedlings were inoculated with a spore suspension of Puccinia recondita (the causal agent of wheat leaf rust) and incubated in a saturated atmosphere at 20° C. for 24 h, and then moved to a growth chamber at 20° C. for 6 days, after which disease ratings were made.
as §1

Pyricularia oryzae = conditions: for Test C disease control rating: rice blast; for Test C disease control rating (100 = 100% disease control, 0 = no disease control): rice seedlings sprayed to run-off, inoculated the following day, rating relative to controls, unmarked compounds (standard test rate)
[2] = 100 = 100% disease control, 0 = no control, unmarked entries (standard test concentration)
[3] = 100 = 100% disease control, 0 = no control relative to controls, unmarked entries (standard test concentration)

SMILES: CCC1(C(=O)NC(C)COc2cccc(Cl)c2Cl)C(C)C1(Cl)Cl (centres unmarked) [compound 111]
- Test E disease control rating (Botrytis cinerea; tested at 40 ppm): 0%
- Test D disease control rating (Phytophthora infestans; tested at 40 ppm): 90%
- Test A disease control rating ([1]; tested at 40 ppm): 90%
- Test B disease control rating (Puccinia recondita; tested at 40 ppm): 0%
- Test C disease control rating (Pyricularia oryzae; tested at 40 ppm): 0%

SMILES: CCC1(C(=O)NC(C)COc2cc(C)ccc2Cl)C(C)C1(Cl)Cl (centres unmarked) [compound 127]
- Test E disease control rating (Botrytis cinerea; tested at 40 ppm): 0%
- Test D disease control rating (Phytophthora infestans; tested at 40 ppm): 19%
- Test A disease control rating ([1]; tested at 40 ppm): 0%
- Test B disease control rating (Puccinia recondita; tested at 40 ppm): 0%
- Test C disease control rating (Pyricularia oryzae; tested at 40 ppm): 94%

SMILES: C[C@H](COc1cc(Cl)c(Cl)cc1Cl)NC(=O)C(C#N)C(C)(C)C (single isomer, unassigned) [174b]
- Test E disease control rating (Botrytis cinerea; [2]): 0%
- Test D disease control rating (Phytophthora infestans; [2]): 91%
- Test A disease control rating [1, 3]: 0%
- Test B disease control rating (Puccinia recondita; [2]): 28%
- Test C disease control rating (Pyricularia oryzae; [2]): 52%

SMILES: CCCc1cccc(C#N)c1OCC(C)NC(=O)C(C#N)C(C)(C)C (mixture of isomers) [compound 205]
- Test E disease control rating (Botrytis cinerea; [2]): 0%
- Test D disease control rating (Phytophthora infestans; [2]): 0%
- Test A disease control rating [1, 3]: 0%
- Test B disease control rating (Puccinia recondita; [2]): 68%
- Test C disease control rating (Pyricularia oryzae; [2]): 74%

SMILES: CCC1(C(=O)NC(C)COc2ccc(Cl)cc2)C(C)C1(Cl)Cl (mixture of isomers) [83b]
- Test E disease control rating (Botrytis cinerea; tested at 40 ppm): 0%
- Test D disease control rating (Phytophthora infestans; tested at 40 ppm): 0%
- Test A disease control rating ([1]; tested at 40 ppm): 52%
- Test B disease control rating (Puccinia recondita; tested at 40 ppm): 0%
- Test C disease control rating (Pyricularia oryzae; tested at 40 ppm): 53%

SMILES: CC(COc1ccccc1C(F)(F)F)NC(=O)C(C#N)C(C)(C)C (mixture of isomers) [17a]
- Test E disease control rating (Botrytis cinerea; [2]): 0%
- Test D disease control rating (Phytophthora infestans; [2]): 16%
- Test A disease control rating [1, 3]: 85%
- Test B disease control rating (Puccinia recondita; [2]): 67%
- Test C disease control rating (Pyricularia oryzae; [2]): 30%

SMILES: C[C@H](COc1cccc(F)c1)NC(=O)C(C#N)C(C)(C)C (single isomer, unassigned) [3e]
- Test E disease control rating (Botrytis cinerea; [2]): 0%
- Test D disease control rating (Phytophthora infestans; [2]): 68%
- Test A disease control rating [1, 3]: 86%
- Test B disease control rating (Puccinia recondita; [2]): 0%
- Test C disease control rating (Pyricularia oryzae; [2]): 100%

SMILES: CCC1(C(=O)NC(C)COc2ccc(F)cc2F)C(C)C1(Cl)Cl (centres unmarked) [compound 106]
- Test E disease control rating (Botrytis cinerea; tested at 40 ppm): 0%
- Test D disease control rating (Phytophthora infestans; tested at 40 ppm): 19%
- Test A disease control rating ([1]; tested at 40 ppm): 84%
- Test B disease control rating (Puccinia recondita; tested at 40 ppm): 0%
- Test C disease control rating (Pyricularia oryzae; tested at 40 ppm): 97%

SMILES: CC(COc1cc(F)c(F)cc1C#N)NC(=O)C(C#N)C(C)(C)C (mixture of isomers) [compound 207]
- Test E disease control rating (Botrytis cinerea; [2]): 0%
- Test D disease control rating (Phytophthora infestans; [2]): 0%
- Test A disease control rating [1, 3]: 0%
- Test B disease control rating (Puccinia recondita; [2]): 0%
- Test C disease control rating (Pyricularia oryzae; [2]): 0%

SMILES: C#CC(C)(C=C)C(C#N)C(=O)NC(C)COc1cc(Cl)ccc1F (mixture of isomers) [compound 302]
- Test E disease control rating (100 = 100% disease control, 0 = no disease control) (Botrytis cinerea): 0%
- Test D disease control rating (100 = 100% disease control, 0 = no disease control) (Phytophthora infestans): 24%
- Test A disease control rating (100 = 100% disease control, 0 = no disease control) [1]: 0%
- Test B disease control rating (100 = 100% disease control, 0 = no disease control) (Puccinia recondita): 0%
- Test C disease control rating (100 = 100% disease control, 0 = no disease control) (Pyricularia oryzae): 99%

SMILES: CC(COc1cccc(I)c1C#N)NC(=O)C(C#N)C(C)C(C)(C)C (mixture of isomers) [compound 65]
- Test E disease control rating (Botrytis cinerea; [2]): 0%
- Test D disease control rating (Phytophthora infestans; [2]): 2%
- Test A disease control rating [1, 3]: 0%
- Test B disease control rating (Puccinia recondita; [2]): 0%
- Test C disease control rating (Pyricularia oryzae; [2]): 0%

SMILES: CC(COc1c(F)ccc(F)c1F)NC(=O)C(C#N)C(C)(C)C (mixture of isomers) [compound 186]
- Test E disease control rating (Botrytis cinerea; [2]): 45%
- Test D disease control rating (Phytophthora infestans; [2]): 0%
- Test A disease control rating [1, 3]: 0%
- Test B disease control rating (Puccinia recondita; [2]): 0%
- Test C disease control rating (Pyricularia oryzae; [2]): 100%

SMILES: C[C@H](COc1c(Cl)ccc(Cl)c1Cl)NC(=O)C(C#N)C(C)(C)C (single isomer, unassigned) [171a]
- Test E disease control rating (Botrytis cinerea; [2]): 0%
- Test D disease control rating (Phytophthora infestans; [2]): 0%
- Test A disease control rating [1, 3]: 0%
- Test B disease control rating (Puccinia recondita; [2]): 0%
- Test C disease control rating (Pyricularia oryzae; [2]): 86%

SMILES: CCC1(C(=O)NC(C)COc2ccccc2C(F)(F)F)C(C)C1(Cl)Cl (mixture of isomers) [94b]
- Test E disease control rating (Botrytis cinerea; tested at 40 ppm): 0%
- Test D disease control rating (Phytophthora infestans; tested at 40 ppm): 0%
- Test A disease control rating ([1]; tested at 40 ppm): 71%
- Test B disease control rating (Puccinia recondita; tested at 40 ppm): 0%
- Test C disease control rating (Pyricularia oryzae; tested at 40 ppm): 0%

SMILES: CCC1(C(=O)NC(C)CCc2ccccc2)C(C)C1(Cl)Cl (mixture of isomers) [compound 244]
- Test E disease control rating (100 = 100% disease control, 0 = no disease control) (Botrytis cinerea): 0%
- Test D disease control rating (100 = 100% disease control, 0 = no disease control) (Phytophthora infestans): 74%
- Test A disease control rating (100 = 100% disease control, 0 = no disease control) [1]: 86%
- Test B disease control rating (100 = 100% disease control, 0 = no disease control) (Puccinia recondita): 0%
- Test C disease control rating (100 = 100% disease control, 0 = no disease control) (Pyricularia oryzae): 99%

SMILES: CCC1(C(=O)NCC=Cc2cc(Cl)ccc2Cl)C(C)C1(Cl)Cl (centres unmarked) [compound 163]
- Test E disease control rating (Botrytis cinerea; tested at 40 ppm): 0%
- Test D disease control rating (Phytophthora infestans; tested at 40 ppm): 42%
- Test A disease control rating ([1]; tested at 40 ppm): 0%
- Test B disease control rating (Puccinia recondita; tested at 40 ppm): 0%
- Test C disease control rating (Pyricularia oryzae; tested at 40 ppm): 52%

SMILES: C[C@H](COc1ccc(Cl)c(Cl)c1)NC(=O)C(C#N)C(C)(C)C (single isomer, unassigned) [181a]
- Test E disease control rating (Botrytis cinerea; [2]): 69%
- Test D disease control rating (Phytophthora infestans; [2]): 56%
- Test A disease control rating [1, 3]: 0%
- Test B disease control rating (Puccinia recondita; [2]): 0%
- Test C disease control rating (Pyricularia oryzae; [2]): 86%

SMILES: CC(COc1ccccc1Br)NC(=O)C1(C)CC1(Cl)Cl (mixture of isomers) [compound 313]
- Test E disease control rating (100 = 100% disease control, 0 = no disease control) (Botrytis cinerea): 47%
- Test D disease control rating (100 = 100% disease control, 0 = no disease control) (Phytophthora infestans): 32%
- Test A disease control rating (100 = 100% disease control, 0 = no disease control) [1]: 0%
- Test B disease control rating (100 = 100% disease control, 0 = no disease control) (Puccinia recondita): 0%
- Test C disease control rating (100 = 100% disease control, 0 = no disease control) (Pyricularia oryzae): 26%

SMILES: C#CC(C)(C)C(C#N)C(=O)NC(C)COc1cc(C)ccc1Cl (mixture of isomers) [compound 213]
- Test E disease control rating (Botrytis cinerea; [2]): 0%
- Test D disease control rating (Phytophthora infestans; [2]): 62%
- Test A disease control rating [1, 3]: 63%
- Test B disease control rating (Puccinia recondita; [2]): 0%
- Test C disease control rating (Pyricularia oryzae; [2]): 99%

SMILES: C[C@H](COc1ccc(F)c(Cl)c1)NC(=O)C(C#N)C(C)(C)C (single isomer, unassigned) [183b]
- Test E disease control rating (Botrytis cinerea; [2]): 69%
- Test D disease control rating (Phytophthora infestans; [2]): 35%
- Test A disease control rating [1, 3]: 86%
- Test B disease control rating (Puccinia recondita; [2]): 28%
- Test C disease control rating (Pyricularia oryzae; [2]): 94%

SMILES: C[C@H](COc1ccccc1)NC(=O)C(C#N)C(C)(C)C (single isomer, unassigned) [1e]
- Test E disease control rating (Botrytis cinerea; [2]): 47%
- Test D disease control rating (Phytophthora infestans; [2]): 80%
- Test A disease control rating [1, 3]: 92%
- Test B disease control rating (Puccinia recondita; [2]): 0%
- Test C disease control rating (Pyricularia oryzae; [2]): 100%

SMILES: CC(C)C(C#N)C(=O)NC(C)C(Oc1ccccc1C#N)c1ccccc1 (mixture of isomers) [compound 290]
- Test E disease control rating (100 = 100% disease control, 0 = no disease control) (Botrytis cinerea): 0%
- Test D disease control rating (100 = 100% disease control, 0 = no disease control) (Phytophthora infestans): 0%
- Test A disease control rating (100 = 100% disease control, 0 = no disease control) [1]: 59%
- Test B disease control rating (100 = 100% disease control, 0 = no disease control) (Puccinia recondita): 0%
- Test C disease control rating (100 = 100% disease control, 0 = no disease control) (Pyricularia oryzae): 90%
